Several values for one entry are separate records, joined by “and”; a condition that tells them apart may be missing. Identical values can stand only once. Like-named read-outs stand apart in the source and are kept apart here.
Experiments:
[1] = tested on: differentiated SH-SY5Y neurons; details: 24 h incubation; ref Giordano et al., 2012; cited from earlier work
SH-SY5Y cells = tested on: SH-SY5Y cells; parameters: method as in Song et al., 2012; details: ref Song et al., 2012; cited from earlier work
[2] = tested on: primary DA midbrain neurons; assay type: cell-based, mice; details: 24 h
Procedure: Experiments were conducted in accordance with the ethical guidelines of H. Lundbeck A/S and the Danish legislation of animal use for scientific procedures. Cell culture was basically performed as described (Nagel et al., [2008]), with few modifications. Briefly, the mesencephalon floor was dissected from embryonic day (E) 13 mice, tissue pieces collected in HBBS, transferred to 0.1% trypsin, 0.05% DNAse (Sigma-Aldrich DN25–1G) and incubated at 37°C in a humidified atmosphere with 5% CO2 for 20 min; washed in DNAse, homogenized and centrifuged at 200× g, resuspended in medium (DMEM (Gibco 41965–039), 10% FCS, 1% P/S (Gibco, 15140–122), l.5% HEPES (Gibco, 15630–056), 1% Sodium Pyruvate (Gibco, 11360–039)) and plated on poly-L-lysine coated 96-well dishes. The medium was switched to neurobasal medium after 90 min (neurobasal (Gibco 21103–049) with 1% P/S, 2% B27 (Gibco, 17504–044), 1.25% 0.5 mM L-glutamine (Gibco, 25030–024)). […] Plates were stored at 4°C until tyrosine-hydroxylase-positive (TH-positive) neurons were counted using a Thermo Scientific Cellomics® ArrayScan® VTI HCS Reader. […] To ensure that only healthy primary cultures were assessed, we furthermore excluded experiments with total cell counts below Mean minus standard deviation (SD) of the summarized experiments. […]

[3] = tested on: primary DA midbrain neurons; experiment: Protection of primary DA midbrain neurons against rotenone toxicity (TH-positive neuron count); assay type: cell-based, mice; details: 1 μM agonist 1 h, 0-100 nM rotenone 24 h, n = 4
Procedure: (§1) Experiments were conducted in accordance with the ethical guidelines of H. Lundbeck A/S and the Danish legislation of animal use for scientific procedures. Cell culture was basically performed as described (Nagel et al., [2008]), with few modifications. […] Plates were stored at 4°C until tyrosine-hydroxylase-positive (TH-positive) neurons were counted using a Thermo Scientific Cellomics® ArrayScan® VTI HCS Reader. […] To ensure that only healthy primary cultures were assessed, we furthermore excluded experiments with total cell counts below Mean minus standard deviation (SD) of the summarized experiments. […]
Mesencephalic cultures were treated with 1 μM of either one of the GPR139 agonists compound 1 ( [drawing 13] ), compound 2 ( [drawing 14] ), or compound 3 ( [drawing 15] ), or vehicle ( [drawing 16] ) for 1 h before exposing them to 0–100 nM of rotenone. […] TH-positive neurons were counted and normalized to control numbers (100%).

human GPR139 receptor [4] = biological target: T1, human GPR139 receptor (Homo sapiens, UniProt Q6DWJ6); parameters: method as in Shi et al., 2011; details: Ca2+ mobilization; ref Shi et al., 2011; read-out: EC50 (GPR139 agonist); cited from earlier work
T1 construct: expressed in transfected cells; host or cells: CHO-K1
T1 sequence (Q6DWJ6 1-353): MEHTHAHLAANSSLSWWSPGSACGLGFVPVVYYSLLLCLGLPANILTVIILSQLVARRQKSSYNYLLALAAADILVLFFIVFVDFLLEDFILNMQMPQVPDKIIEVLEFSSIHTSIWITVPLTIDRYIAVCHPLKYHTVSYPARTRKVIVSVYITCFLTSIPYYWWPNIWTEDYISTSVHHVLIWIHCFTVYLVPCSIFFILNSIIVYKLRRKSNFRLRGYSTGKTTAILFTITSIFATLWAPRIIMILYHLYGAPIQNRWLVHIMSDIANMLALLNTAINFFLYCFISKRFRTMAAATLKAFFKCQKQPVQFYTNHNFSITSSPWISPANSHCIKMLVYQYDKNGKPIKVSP

[5] = parameters: method as in Shi et al., 2011; details: ref Shi et al., 2011; cited from earlier work
DAT = DAT (Homo sapiens, UniProt Q01959); parameters: method as in Shi et al., 2011; details: 10 μM; ref Shi et al., 2011; cited from earlier work
Chain of DAT (Q01959 whole entry, species assumed): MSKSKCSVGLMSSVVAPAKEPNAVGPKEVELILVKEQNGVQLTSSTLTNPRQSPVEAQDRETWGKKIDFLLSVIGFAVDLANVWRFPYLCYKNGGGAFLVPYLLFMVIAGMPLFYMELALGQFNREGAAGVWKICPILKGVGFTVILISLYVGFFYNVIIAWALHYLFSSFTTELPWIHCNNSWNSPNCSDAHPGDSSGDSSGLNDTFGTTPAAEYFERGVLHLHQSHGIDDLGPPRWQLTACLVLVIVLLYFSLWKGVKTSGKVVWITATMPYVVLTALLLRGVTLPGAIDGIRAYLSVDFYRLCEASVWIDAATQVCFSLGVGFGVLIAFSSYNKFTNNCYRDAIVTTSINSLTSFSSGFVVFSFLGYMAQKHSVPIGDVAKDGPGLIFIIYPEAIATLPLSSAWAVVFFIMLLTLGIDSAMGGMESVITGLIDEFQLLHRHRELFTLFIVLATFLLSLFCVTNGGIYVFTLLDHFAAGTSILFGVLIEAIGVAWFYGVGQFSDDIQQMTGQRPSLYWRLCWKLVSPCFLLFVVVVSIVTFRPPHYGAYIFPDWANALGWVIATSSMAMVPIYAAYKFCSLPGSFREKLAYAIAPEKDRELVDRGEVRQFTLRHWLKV

[6] = tested on: primary DA midbrain neurons; experiment: Protection of primary DA midbrain neurons against 6-OHDA toxicity (TH-positive neuron count); assay type: cell-based, mice; details: 1 μM agonist 1 h, 0-50 μM 6-OHDA 24 h
Procedure: as §1
Neuronal midbrain cultures were pretreated with 1 μM of either one of the agonists compound 1 ( [drawing 9] ), compound 2 ( [drawing 10] ), or compound 3 ( [drawing 11] ), or vehicle ( [drawing 12] ) for 1 h, followed by treatment with the indicated concentrations of 6-hydroxydopamine (6-OHDA) for 24 h. TH-positive neurons were counted and normalized to control numbers.

[7] = tested on: primary DA midbrain neurons; experiment: Protection of primary DA midbrain neurons against MPP+ toxicity (TH-positive neuron count); assay type: cell-based, mice
Procedure: Experiments were conducted in accordance with the ethical guidelines of H. Lundbeck A/S and the Danish legislation of animal use for scientific procedures. Cell culture was basically performed as described (Nagel et al., [2008]), with few modifications. Briefly, the mesencephalon floor was dissected from embryonic day (E) 13 mice, tissue pieces collected in HBBS, transferred to 0.1% trypsin, 0.05% DNAse (Sigma-Aldrich DN25–1G) and incubated at 37°C in a humidified atmosphere with 5% CO2 for 20 min; washed in DNAse, homogenized and centrifuged at 200× g, resuspended in medium (DMEM (Gibco 41965–039), 10% FCS, 1% P/S (Gibco, 15140–122), l.5% HEPES (Gibco, 15630–056), 1% Sodium Pyruvate (Gibco, 11360–039)) and plated on poly-L-lysine coated 96-well dishes. The medium was switched to neurobasal medium after 90 min (neurobasal (Gibco 21103–049) with 1% P/S, 2% B27 (Gibco, 17504–044), 1.25% 0.5 mM L-glutamine (Gibco, 25030–024)). After 6 days in vitro (DIV), cultures were treated with 1 μM of three different GPR139 agonists and in some experiments, concomitantly, with 10 μM of the antagonist for1 h, before exposing them to 0–1 μM MPP^+, 0–50 μM 6-OHDA or 0–100 nM rotenone for 24 h. For the MPP^+ treated cultures, it was also tested whether the effect of the GPR139 agonists could be blocked by concomitantly applying 10 μM GPR139 antagonist (IC50 3 μM). Subsequently, cells were fixed in 4% PFA/PBS for 10 min, washed with PBS, incubated in 0.5% BSA/0.1% Triton-X/5% porcine serum for 20 min, and incubated for 24 h in rabbit anti-tyrosine hydroxylase antibodies (1:1000 in PBS, Millipore AB152); washed 2 × 5 min in PBS. Secondary antibodies (Alexa 488 rabbit) were applied 1:200 in PBS with 0.2 μg/ml Hoechst dye for 1 h and washed 2 × 5 min in PBS. One drop of DAKO fluorescent mounting medium were applied into each well. Plates were stored at 4°C until tyrosine-hydroxylase-positive (TH-positive) neurons were counted using a Thermo Scientific Cellomics® ArrayScan® VTI HCS Reader. Results were normalized against control condition and compared. Experiments were only included in the evaluation if at least 30% cell death was induced at the highest toxin concentration compared to non-treated control wells. To ensure that only healthy primary cultures were assessed, we furthermore excluded experiments with total cell counts below Mean minus standard deviation (SD) of the summarized experiments. […]
To examine whether GPR139 agonists protect against toxin-induced DA cell death, we first treated cultured DA midbrain neurons with the GPR139 agonists and MPP^+ . Subsequently, we determined survival of TH-positive neurons.
Figure 8 Three different GPR139 surrogate agonists protect primary dopaminergic (DA) midbrain neurons against 1-methyl-4-phenyl-pyridinium ionMPP^+ toxicity. […] TH-positive neurons were counted and normalized to numbers under control conditions. […] Each data point is calculated from 12 (0 μM and 1 μM MPP^+ concentrations); 4 (0.125 μM); 7 (0.25 μM); or 8 (0.5 μM) independent measurements.
Primary midbrain cultures were pretreated with the indicated amount of GPR139 agonist compound 3 and with either vehicle ( [drawing 5] ), or 1 μM MPP^+ ( [drawing 6] ); or MPP^+ with 10 μM of the antagonist compound 4 ( [drawing 7] ), or with the antagonist compound 4 alone ( [drawing 8] ). The number of TH-positive neurons was determined 24 h later and normalized to control conditions. […]

[8] = biological target: norepinephrine transporter (Homo sapiens, UniProt P23975); parameters: method as in Shi et al., 2011; details: 10 μM; ref Shi et al., 2011; cited from earlier work
Chain of norepinephrine transporter (P23975 whole entry, species assumed): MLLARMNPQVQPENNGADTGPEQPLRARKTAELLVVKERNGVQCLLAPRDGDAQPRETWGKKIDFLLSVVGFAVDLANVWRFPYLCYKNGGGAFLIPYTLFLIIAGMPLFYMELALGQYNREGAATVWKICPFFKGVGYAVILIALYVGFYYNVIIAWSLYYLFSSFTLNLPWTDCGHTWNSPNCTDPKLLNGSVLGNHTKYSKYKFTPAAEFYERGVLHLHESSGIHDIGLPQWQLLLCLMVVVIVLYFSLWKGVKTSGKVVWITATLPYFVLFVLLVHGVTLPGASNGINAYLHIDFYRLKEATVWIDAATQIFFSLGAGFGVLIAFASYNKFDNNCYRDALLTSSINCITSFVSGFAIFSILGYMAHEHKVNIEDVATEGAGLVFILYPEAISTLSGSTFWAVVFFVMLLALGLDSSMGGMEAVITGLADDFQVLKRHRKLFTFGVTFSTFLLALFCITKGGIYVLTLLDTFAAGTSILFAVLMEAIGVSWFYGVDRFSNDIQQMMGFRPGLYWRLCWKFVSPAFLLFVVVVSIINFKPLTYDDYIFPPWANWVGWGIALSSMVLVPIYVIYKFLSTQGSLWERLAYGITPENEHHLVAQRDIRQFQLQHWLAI

human GPR139 receptor [9] = biological target: T1, human GPR139 receptor; experiment: GPR139 calcium mobilization assay (CHO-K1 cells stably expressing the receptor); assay type: cell-based; details: inhibition of agonist-induced stimulation (compound 1 at EC85); read-out: IC50 (GPR139 antagonist)
Procedure: EC50 and IC50 for all compounds were determined as described (Shi et al., [2011]).
All compounds were further characterized using GPR139-based Ca^2+ mobilization assays (Figure 5).
Figure 5 Additional characterization of GPR139 compounds using kinetic fluorescence measurements and concentration-response determination in calcium mobilization assays. (A–D) Examples for the kinetic of relative fluorescence units (RFU) for compound 1 and 4 and related controls, involving a two-step addition protocol. (A) Cellular fluorescence response to addition of buffer (approximately at time 0:00 min) and a second addition of buffer at 3:20 min. (B) Cellular fluorescence response to addition of the Ca^2+ ionophore and reference compound for complete release of Ca^2+ from intracellular stores, ionomycin. (C) Cellular response to addition of 10 μM compound 1 at time 0:00. (D) Cellular fluorescence in response to antagonist compound 4 (at 0:00, 50 μM) and addition of agonist compound 1 at EC85 concentration. […]
Standard molecular cloning techniques were used to generate Chinese hamster ovary (CHO-K1) cells stably expressing the human GPR139 receptor. […] Calcium flux was measured using a Hamamatsu FDSS7000 imaging-based plate reader (Hamamatsu Photonics) using 480 nm excitation light and emitted fluorescent light passed through a 525 nm emission filter and detected by a CCD camera. […]

NCCc1cc(O)c(O)cc1O [6-OHDA, 6-hydroxydopamine]
concentration giving 50% cell death [1]: 100 µM

COc1ccc(CCc2cc(OC)c(O)c(OC)c2)cc1OC [Chrysotoxine]
antagonism of MPP+ toxicity (SH-SY5Y cells): could antagonize
antagonism of rotenone toxicity (SH-SY5Y cells): not rotenone

C[n+]1ccc(-c2ccccc2)cc1 [MPP^+, 1-methyl-4-phenylpyridinium]
average DA neuronal cell death ([2]; 1 μM MPP+): 40%
concentration giving 50% cell death [1]: 5000 µM

COc1cc(OC)cc(C(=O)NNC(=O)Nc2cccc3ccccc23)c1 [compound 1, 2-(3,5-Dimethoxybenzoyl)-N-(1-naphthyl)-hydrazinecarboxamide]
protection against rotenone toxicity [3]: do not protect
EC50 (human GPR139 receptor [4]): 0.039 µM
ADME properties for in vivo testing [5]: does not hold the ADME properties necessary for in vivo testing
inhibition of binding to the DAT (DAT): 4%
protection against 6-OHDA toxicity [6]: do not protect
protection against MPP+ toxicity ([7]; 1 μM agonist 1 h, 1 μM MPP+ 24 h, p ≤ 0.05 vs vehicle): significant
inhibition of binding to the norepinephrine transporter [8]: −8%

Cc1c(CC(Cl)(Cl)Cl)c2c(n1-c1ccc(F)cc1)CCCC2=O [compound 4, 1-(4-Fluoro-phenyl)-2-methyl-3-(2,2,2-trichloro-ethyl)-1,5,6,7-tetrahydro-indol-4-one, reference compound]
IC50 (human GPR139 receptor [9]): 7.4 µM and 3 µM
effect of antagonist on protection by the agonists against MPP+ ([7]; 10 μM antagonist co-applied with agonist, 1 μM MPP+): blocked the protective effect
effect of antagonist alone on DA cell survival ([7]; 10 μM antagonist, no MPP+): did not have an effect

C=C(C)[C@H]1Cc2c(ccc3c2O[C@@H]2COc4cc(OC)c(OC)cc4[C@@H]2C3=O)O1 [rotenone]
average DA neuronal cell death ([2]; 100 nM rotenone): 60%
concentration giving 50% cell death [1]: 0.005 µM
